# Measurements: patent US20090149427A1, “PHARMACEUTICALLY ACCEPTABLE SALTS AND HYDRATES OF RISEDRONIC ACID” (Pliva Hrvatska d.o.o., priority 2005, published 2009)
# Conditions: humidity range 0-90% RH at 25° C., over a time period of 1200 minutes, FIG. 7
# Description: FIG. 7: Izotherm diagram for tri-sodium risedronate dihydrate showing the sorption and desorption isotherm for tri-sodium risedronate dihydrate measured in a humidity range from 0-90% RH at 25° C. at DVS 1 (Surface Measurement System).
compound,measurement,value
O.O.O=P([O-])([O-])C(O)(Cc1cccnc1)P(=O)([O-])O.[Na+].[Na+].[Na+] [tri-sodium risedronate dihydrate],hygroscopicity (water absorption when humidity is raised),absorbs a minimum quantity of water
